In patent publication US8158630B2, “Application of 2,5 -dihydroxymethyl-3,6-dimethyl pyrazine and its derivates in pharmacy” (Nanjing University of Chinese Medicine, priority 2010, dated 2012):

How the values were obtained:
normal rats = assay: Effects on heart functions and hemodynamics of normal rats, intravenous administration; assay type: in vivo, rat; settings: for LVEDP / LVSP / +dp/dtmax / −dp/dtmax: normal rats, within one minute after administration, n = 10; for +dp/dtmax / −dp/dtmax: in mmHg/s (unit assumed)
Experimental: After the rats are paralysed with 20% ethyl urethane (urethane) (1 g/kg) and fixed on a thermostatical operation table on their backs, needle-electrodes for electrocardiogram are subcutaneously inserted from their extremities and the lead II […] (ECG) and the heart rate (HR) are measured by inputting into the multiplying channel device. The right common carotid artery is isolated from the inner side of sternocleidomastoid muscle after the […] and temperature (37° C.) become stable, and the right common carotid artery is ligated at its head end and left ventricular cannulation is carried out. It is connected with the polygraph via a pressure transducer to measure the heart function indexes of left ventricle, in the meantime, the right femoral vein is isolated and venous cannulation is carried out for the intravenous administration, and the non-inserted end is connected to a syringe that is filled with 40 IU/mL heparin physiological saline, the multi-channel physiological signal acquisition and processing system is used to record the data. After the measured indexes become stable, the data at one minute before the drug administration are recorded as the blank control, and Liguzinediol is dissolved in physiological saline and then use 5, 10 and 20 mg/kg respectively as the low, mediate and high dosage groups, and the results within one minute after the intravenous administration are shown in Table 2. The heart rate aberration that is induced by Liguzinediol is not found in the three dosage groups after administration.

isolated hearts of rats = assay: Effects on the cardiac contractility of isolated hearts of rats (Langendorff perfusion); parameters: species or system rat; settings: 0.1 mmol/L; for heart dysrhythmia / +dp/dtmax (maximum value of left ventricular pressure increase) / Heart rate / LVEDP (left ventricular diastolic pressure) / LVSP (left ventricular systolic pressure) / −dp/dtmax (maximum value of left ventricular pressure decrease): isolated rat heart; for +dp/dtmax (maximum value of left ventricular pressure increase) / Heart rate / LVEDP (left ventricular diastolic pressure) / LVSP (left ventricular systolic pressure) / −dp/dtmax (maximum value of left ventricular pressure decrease): after administration
Experimental: Intraperitoneal injection of 1.2 g/kg urethane is carried out on rats and the hearts are collected. After the hearts are rinsed and cut in 100% oxygen saturated physiological saline at 0° C., they are connected to modified Langendorff heart perfusion equipments to couduct retrogressive perfusion via the aorta. The perfusate (in mmol/L) is NaCl 117, KCl 5.7, CaCl2 1.8, NaHCO3 4.4, NaH2PO4 1.5, MgCl2 1.7, HEPES 20, Glucose 11, Creatine 10, Taurine 20, and NaOH is used to adjust the pH value to 7.3. The probe of the pressure receptor is inserted into the left ventricle via the left auricle, and BioAmp amplifier is used to record the left ventricular pressure, and the electrocardiogram is measured at the same time.

SMILES | cardiac contractility of isolated hearts of rats (isolated hearts of rats) | heart dysrhythmia (isolated hearts of rats) | +dp/dtmax (maximum value of left ventricular pressure increase) (isolated hearts of rats) | Heart rate (isolated hearts of rats) | LVEDP (left ventricular diastolic pressure) (isolated hearts of rats) | LVSP (left ventricular systolic pressure) (isolated hearts of rats) | −dp/dtmax (maximum value of left ventricular pressure decrease) (isolated hearts of rats) | also measured
Cc1nc(CO)c(C)nc1CO [Compound 2, 2,5-dihydroxymethyl-3,6-dimethyl pyrazine] | significantly increase | no heart dysrhythmia is found | 790.3 ± 251.6 | 154.4 ± 28.8^Δ | −13.0 ± 2.3 | 26.9 ± 5.9 | −763.5 ± 188.0 | LVEDP (normal rats; 5 mg/kg i.v.): 7.9 ± 6.3; LVSP (normal rats; 5 mg/kg i.v.): 132.7 ± 9.1; +dp/dtmax (normal rats; 5 mg/kg i.v.): 12027 ± 1388; −dp/dtmax (normal rats; 5 mg/kg i.v.): −10238 ± 1247; LVEDP (normal rats; 10 mg/kg i.v.): 6.9 ± 6.1; LVSP (normal rats; 10 mg/kg i.v.): 135.7 ± 10.9; +dp/dtmax (normal rats; 10 mg/kg i.v.): 11484 ± 1410; −dp/dtmax (normal rats; 10 mg/kg i.v.): −9667 ± 670; LVEDP (normal rats; 20 mg/kg i.v.): 6.3 ± 4.8; LVSP (normal rats; 20 mg/kg i.v.): 139.7 ± 4.6; +dp/dtmax (normal rats; 20 mg/kg i.v.): 12347 ± 1030; −dp/dtmax (normal rats; 20 mg/kg i.v.): −9964 ± 1045; left ventricular contraction and diastolic function of rat heart (normal rats; rats, 5, 10 and 20 mg/kg i.v.): significantly increase the left ventricular contraction and improve the diastolic function; heart rate aberration (normal rats; rats, 5, 10 and 20 mg/kg i.v., after administration): not found
CC(=O)OCc1nc(C)c(COC(C)=O)nc1C [Compound 1, 2,5-diacetoxymethyl-3,6-dimethyl pyrazine] | significantly increase | no heart dysrhythmia is found | 831.9 ± 268.2 | 191.6 ± 58.0^Δ | −14.4 ± 7.2 | 26.1 ± 12.5 | −884.9 ± 347.0 | –
